Test results published in patent US10457707B2, “Substituted urea depsipeptide analogs as activators of the CLPP endopeptidase” (priority 2015, dated 2019).
Where two headings read alike, the source gives them in different places. *1 amine or outer side, *2 acyl side, *3 side chain or, on linkers, in order; H or OH if unused. Where a SMILES comes first, the peptide text is derived from it. Bridges are numbered along the chain shown (N, C = ends). [ ]: non-standard residue; d: D form. The star is where a group is joined. ξ: configuration not given here. Phe(3,5-F2) = N[CH](Cc1cc(F)cc(F)c1)C(=O)O; NH(4-OCF3-phenyl) = FC(F)(F)Oc1ccc(N*)cc1; X14 = O=C(C1CC(OP(=O)(O)O)CN1[*:1])[*:2]; Pro(4S-Me) = C[C@@H]1CN[C@H](C(=O)O)C1; Pro(4R-Me) = C[C@H]1CN[C@H](C(=O)O)C1; NH(3,4-Me2-phenyl) = Cc1ccc(N*)cc1C; aThr = C[C@H](O)[C@H](N)C(=O)O; ξPro(4ξ-Me) = CC1CNC(C(=O)O)C1; X13 = c1nc2cc(N*)ccc2[nH]1; Pip = O=C(O)[CH]1CCCCN1; CO = O=C([*:1])[*:2]

Columns and labels:
Sa-ClpP [1] = target: T1, Sa-ClpP (Staphylococcus aureus, UniProt Q2G036); assay: Sa-ClpP casein-BODIPY ClpP activation assay, method variant not marked in Table 5; format: biochemical, S. aureus
T1 construct: made in house; host or cells: E. coli BL21(DE3)
T1 sequence (Q2G036 1-195): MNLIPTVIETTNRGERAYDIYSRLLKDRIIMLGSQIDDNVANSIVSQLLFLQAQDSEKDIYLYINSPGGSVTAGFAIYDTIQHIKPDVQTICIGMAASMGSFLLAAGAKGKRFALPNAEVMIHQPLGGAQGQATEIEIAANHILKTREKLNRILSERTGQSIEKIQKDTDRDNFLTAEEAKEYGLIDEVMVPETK
Method: The compounds were assayed in a casein digestion assay in order to determine their effect on ClpP activation. Briefly, the assay was carried out using S. aureus ClpP (“Sa-ClpP”) overexpressed in E. coli BL21(DE3) and purified in a two-step process. Purity of the protein was assessed through SDS PAGE analysis. EC50 evaluations were conducted in triplicate in a 20 μl assay format using a method adapted from Maurizi et al. (Methods Enzymol. (1994) 244:314-331). Each well contained 10 μM saClpP, 25 μg/ml BODIPY FL casein (Invitrogen Corporation, San Diego, Calif.), and test compound in concentrations ranging between 0-1000 μM in assay buffer (50 mM Tris pH 8, 200 mM KCl, and 1 mM TCEP). The reaction took place at 37° C. Fluorescence (excitation 485 nm; emission 528 nm) was measured in five minute intervals over a 45 min period using a BioTek HT fluorescence microplate reader (BioTek Instruments, Inc., Winooski, Vt.). Velocity of each reaction was calculated and data was fit to a dose response curve using GraphPad Prism® software (GraphPad Software, Inc., La Jolla, Calif.). EC50 is the effective concentration of compound which causes 50% activation of S. aureus ClpP in the foregoing BODIPY FL casein assay.
Alternatively, the assay was carried out using EnzCheck Protease Assay (Molecular Probes, Catalog # E6638). The assay was performed in black 384 well, flat bottom, low volume plates (Greiner Bio-One, Monroe, N.C., catalog #784076). 10 μL of Tris*HCl buffer, pH 8.0 with 0.01% Triton X-100 was pipetted into each well using a Well-Mate (Thermo Scientific, Waltham, Mass.). 0.4 μL test compounds or controls (2% DMSO v/v) were added to each well using a Biomek FX liquid handling robot (Beckman Coulter, Indianapolis Ind.). After addition of test compounds and controls, 10 μL of master mix containing 2 μM Sa-ClpP and 2 μM substrate (Bodipy-FL labeled casein) in Tris*HCl buffer, pH 8.0 with 0.01% (v/v) Triton X-100, was pipetted into each well. All assays were performed in triplicate, under linear velocity conditions. Increase in fluorescent signal following activation of Sa-ClpP by test compounds and controls was measured over time period of 30 mins using filters with excitation at 485±15 nm and emission at 520±25 nm on a PHERAstar FS Multilabel reader (BMG, Cary, N.C.). […] Data analysis was done by measuring rate of casein degradation over time (slopes). Computed degradation rates (slopes) were normalized to positive (ADEP4) or negative (DMSO) controls. Using nonlinear regression curve fitting EC50 values and % activation were determined using the equation “log [agonist] vs. Response-variable slope (four parameters)-symmetrical” in the program Prism 6 (GraphPad Software, La Jolla, Calif. USA, www.graphpad.com).
Substituted urea depsipetide analogs were synthesized as described above. The EC50 for ClpP activation was determined in the Sa-ClpP in casein-BODIPY assay as described above. The IC50 for ADEP displacement was determined in the ADEP displacement fluorescent polarization assay as described above; and the IC50 for growth inhibition was determined in the Vero cell cytotoxicity assay as described above. The compound number corresponds to the compound numbers used in Tables 1-4 and the experimental examples described above.

Sa-ClpP [2] = target: T1, Sa-ClpP; assay: ADEP displacement fluorescence polarization assay (FP probe ADEP 2591); format: binding
Method: A fluorescence polarization (FP) assay was used to determine the activity of the disclosed compounds in displacing an ADEP analogue from ClpP. Briefly, the assay was performed in black 384 well, flat bottom, low volume plates (Greiner Bio-One, Monroe, N.C., catalog #784076). 20 μL of a pre-equilibrated (1 hr, room temperature) master mix (15 μM Sa-ClpP, 2% DMSO (v/v) and 50 nM FP probe in Tris*HCl, pH 8.0)) was pipetted into each well using a Well-Mate (Thermo Scientific, Waltham, Mass.). Sa-ClpP was prepared as described above for the ClpP activation assay. The FP probe was ADEP 2591 (structure shown above). The ADEP 2591 comprises a TAMRA fluorophore linked to a core based on modified ADEP 2378 via a short alkyl linker. Using pin transfer, approximately 0.4 μL (2% v/v DMSO) of each compound or control was added per well. After addition of compounds and controls, plates were allowed to incubate for an additional 120 minutes at room temperature. All assays were performed in triplicate. Polarization was monitored using an EnVision Multilabel reader (Perkin-Elmer, Waltham, Mass.) by exciting the FP probe at 530±25 nm, and monitoring fluorescence intensity of both parallel and perpendicular polarized light at 579±25 nm. Readout was in millipolarization units (mP).
Data collected was normalized to values obtained from positive (200 μM ADEP 2378) or negative (DMSO) controls. Curves were fit with non-linear regression using the equation “log [inhibitor] vs. Response-variable slope (four parameters)-symmetrical” in the program Prism 6 (GraphPad Software, La Jolla, Calif. USA, www.graphpad.com). The structures for ADEP 2378 and ADEP 2591 are shown above. ADEP 2378 is (E)-N—((S)-1-(((2R,6S,8aS,14aS,20S,23aS)-2,6-dimethyl-5,8,14,19,23-pentaoxooctadecahydro-1H,5H,14H,19H-pyrido[2,1-i]dipyrrolo[2,1-c:2′,1′-1][1]oxa[4,7,10,13]tetraazacyclohexadecin-20-yl)amino)-1-oxo-3-phenylpropan-2-yl)pent-2-enamide. ADEP 2591 is 5-(3-(3-((6S,9S,11aS,17S,20aS)-6,10-dimethyl-5,8,11,16,20-pentaoxo-17-((S)-2-((E)-pent-2-enamido)-3-phenylpropanamido)hexadecahydro-1H,5H,16H-dipyrrolo[2,1-c:2′,1′-1][1]oxa[4,7,10,13]tetraazacyclohexadecin-9-yl)propyl)thioureido)-2-(6-(dimethylamino)-3-(dimethyliminio)-3H-xanthen-9-yl)benzoate.

[3] = test system: Vero (kidney epithelial cells; ATCC CCL-81); assay: Cytotoxicity assay (CellTiter-Glo cell viability, 72 hours); format: cell-based; details: Vero cells, 72 hours, growth inhibition; read-out: Cytotoxicity IC50
Method: (§1) Cytotoxicity was determined by determining the effect of compounds on cell viability. Vero (kidney epithelial cells; ATCC CCL-81) monolayers were trypsinized and 5000 cells/well were seeded (10-15% confluency) into white-wall, flat bottom 96 well microwell plates (Corning) using enriched Dulbecco's Modified Eagle's Medium (Hyclone:DMEM/High Glucose) containing 10% Fetal Bovine Serum (ATCC-30-2020). Plates were incubated overnight at 37° C. in the presence of 5% CO2. Drug-free media was then replaced with media containing serial dilutions of test compound or DMSO carrier. After an additional 72 hours of incubation, viability was indirectly measured using the CellTiter-Glo® Luminescent Cell Viability (Promega) assay. Assay plates were read at peak emission wavelength of 560 nm using a EnVision® Multilabel Plate Reader (Perkin Elmer) or PHERAstar FS Multilabel reader (BMG, Cary, N.C.). […] USA, www.graphpad.com]. For each experiment, compounds were tested in duplicate. IC50 values presented are the range of two biologically independent experiments.

[4] = as above; format: cell-based; details: African green monkey; Vero cells, 72 hours, growth inhibition; read-out: Cytotoxicity IC50
Method: as §1

[5] = values without ** or † mark, assay variant not stated, read-out: ClpP Activation EC50
[6] = displacement of FP probe ADEP 2591 from Sa-ClpP, read-out: ADEP Displacement IC50

| Compound | IC50 (Sa-ClpP [2]) [µM] | EC50 (Sa-ClpP [1]; [5]) [µM] | IC50 (Sa-ClpP [2]; [6]) [µM] | also measured |
| --- | --- | --- | --- | --- |
| Cc1ccc(NC(=O)NC(Cc2cc(F)cc(F)c2)C(=O)NC2C(=O)N3CC(OP(=O)(O)O)CC3C(=O)N3CCCCC3C(=O)NC(C)C(=O)N3CC(C)CC3C(=O)OC2C)cc1C [Compound 192, sodium (2R,6S,8aS,14aS,16R,20S,21S,23aS)-20-((S)-3-(3,5-difluorophenyl)-2-(3-(3,4-dimethylphenyl)ureido)propanamido)-2,6,21-trimethyl-5,8,14,19,23-pentaoxooctadecahydro-1H,5H,14H,19H-pyrido[2,1-i]dipyrrolo[2,1-c:2′,1′-l][1]oxa[4,7,10,13]tetraazacyclohexadecin-16-yl phosphate] ({NH(3,4-Me2-phenyl)-CO}-[Phe(3,5-F2)]T[X14][Pip]A[ξPro(4ξ-Me)]; ester 2-C; configuration not given here) | 7.37 ± 0.28 | – | – | EC50 (Sa-ClpP [1]): 0.6 ± 0.02 µM |
| C[C@H]1C[C@H]2C(=O)O[C@@H](C)[C@H](NC(=O)[C@H](Cc3cc(F)cc(F)c3)NC(=O)Nc3ccc(OC(F)(F)F)cc3)C(=O)N3CCC[C@H]3C(=O)N3CCCC[C@H]3C(=O)N[C@@H](C)C(=O)N2C1 [Compound 22, (S)-3-(3,5-difluorophenyl)-2-(3-(4-(trifluoromethoxy)phenyl)ureido)-N-((2R,6S,8aS,14aS,20S,21S,23aS)-2,6,21-trimethyl-5,8,14,19,23-pentaoxooctadecahydro-1H,5H,14H,19H-pyrido[2,1-i]dipyrrolo[2,1-c:2′,1′-l][1]oxa[4,7,10,13]tetraazacyclohexadecin-20-yl)propanamide] ({NH(4-OCF3-phenyl)-CO}-[Phe(3,5-F2)][aThr]P[Pip]A[Pro(4S-Me)]; ester 2-C) | – | – | – | IC50 [3]: 52.3 ± 7.7 µM |
| C[C@@H]1C[C@H]2C(=O)O[C@@H](C)[C@H](NC(=O)[C@H](Cc3cc(F)cc(F)c3)NC(=O)Nc3ccc4[nH]cnc4c3)C(=O)N3CCC[C@H]3C(=O)N3CCCC[C@H]3C(=O)N[C@@H](C)C(=O)N2C1 [Compound 303, (S)-2-(3-(1H-benzo[d]imidazol-6-yl)ureido)-3-(3,5-difluorophenyl)-N-((2R,6S,8aS,14aS,20S,21S,23aS)-2,6,21-trimethyl-5,8,14,19,23-pentaoxooctadecahydro-1H,5H,14H,19H-pyrido[2,1-i]dipyrrolo[2,1-c:2′,1′-l][1]oxa[4,7,10,13]tetraazacyclo-hexadecin-20-yl)propanamide] ({X13-CO}-[Phe(3,5-F2)][aThr]P[Pip]A[Pro(4R-Me)]; ester 2-C) | 11.1 ± 0.4 | 1.43 ± 0.03 | – | IC50 at 72 h [4]: > 100 µM |
| sodium (R)-1-((2R,6S,9S,11aS,17S,18S,20aS)-17-((S)-3-(3,5-difluorophenyl)-2-(3-(p-tolyl)ureido)propanamido)-2,6,10,18-tetramethyl-5,8,11,16,20-pentaoxohexadecahydro-1H,5H,16H-dipyrrolo[2,1-c:2′,1′-l][1]oxa[4,7,10,13]tetraazacyclohexadecin-9-yl)ethyl phosphate [Compound 193] | – | 0.77 ± 0.05 | 7.15 ± 0.33 | – |
| sodium (2R,6S,8aS,14aS,16R,20S,21S,23aS)-20-((S)-3-(3,5-difluorophenyl)-2-(3-(p-tolyl)ureido)propanamido)-2,6,21-trimethyl-5,8,14,19,23-pentaoxooctadecahydro-1H,5H,14H,19H-pyrido[2,1-i]dipyrrolo[2,1-c:2′,1′-l][1]oxa[4,7,10,13]tetraazacyclohexadecin-16-yl phosphate [Compound 191] | – | 0.7 ± 0.03 | 8.56 ± 0.38 | – |
